Experimental data as given in patent US20100292185A1, “BETA-LACTAMASE INHIBITORS” (priority 2009, published 2010).
Structures can show the parent of a compound that is named as a salt. Where two headings read alike, the source gives them in different places.

Tests used:
[1] = target: T1, SHV-5 β-lactamase (Klebsiella pneumoniae, UniProt P0A3M1); assay: β-lactamase enzyme inhibition assay (nitrocefin substrate), SHV-5; assay type: biochemical
T1 construct: expressed as native untagged proteins; made in house; host or cells: E. coli BL21(DE3)
How it was run: (§1)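 Enzyme was first mixed with serially diluted compound (100 to 0.005 μM) in PBS pH 7.0 and held 10 min at 37 °C. Next, nitrocefin was dispensed to 100 μM final, and hydrolysis was followed at 486 nm for 10 min. Percent inhibition was then calculated from maximum rates and fitted to an IC50.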

[2] = target: T2, CTX-M15 β-lactamase (Escherichia coli, UniProt Q9EXV5); assay: β-lactamase enzyme inhibition assay (nitrocefin substrate), CTXM-15; assay type: biochemical
T2 construct: expressed as native untagged proteins; made in house; host or cells: E. coli BL21(DE3)
How it was run: as §1

[3] = target: T3, p99 AmpC β-lactamase (Enterobacter cloacae, UniProt P05364); assay: β-lactamase enzyme inhibition assay (nitrocefin substrate), P99 AmpC; assay type: biochemical
T3 construct: expressed as native untagged proteins; made in house; host or cells: E. coli BL21(DE3)
How it was run: as §1

[4] = target: T4, KPC-2 β-lactamase (Klebsiella pneumoniae, UniProt Q9F663); assay: β-lactamase enzyme inhibition assay (nitrocefin substrate), KPC-2; assay type: biochemical
T4 construct: expressed as native untagged proteins; made in house; host or cells: E. coli BL21(DE3)
How it was run: as §1

[5] = target: T5, VIM-2 metallo β-lactamase (Pseudomonas aeruginosa, UniProt Q9K2N0); assay: β-lactamase enzyme inhibition assay (nitrocefin substrate), VIM-2; assay type: biochemical; conditions: nitrocefin 100 μM, 37° C., PBS pH 7.0; read-out: VIM-2 IC50
T5 construct: made in house
Experimental: Isolation of β-lactamases. For SHV-5, p99 AmpC, KPC-2 and CTX-M15 β-lactamases, E. coli BL21(DE3) bacterial cells carrying expression plasmids (expressed as native untagged proteins) for the individual β-lactamases were grown in 1 L of Superbroth (Teknova Inc. Hollister, Calif.) supplemented with 100 μg/ml kanamycin and 1×5052 (0.5% glycerol, 0.05% glucose and 0.2% α-lactose) at 35° C. for 18-20 hours. Cells were harvested by centrifugation (4,000×g, 4° C., 20 min), and resuspended in 50 ml of 10 mM HEPES pH 7.5 (1/20 of the initial volume). The cells were lysed by sonication (5 pulses of 45 seconds) at 45 W on ice. The lysates were clarified by centrifugation at 10,000×g for 40 minutes at 4° C. Samples were diluted 5-fold in 50 mM sodium acetate pH 5.0, stored overnight at 4° C., after which they were centrifuged at 10,000×g for 30 minutes to clarify, and filtered through 0.45 μm filters. The samples were loaded onto a 5 ml Capto S sepharose cation exchange column (GE Healthcare) pre-equilibrated with 50 mM sodium acetate pH 5.0. The column was washed with 5 column volumes of 50 mM sodium acetate pH 5.0 to wash out unbound protein and a linear gradient of NaCl (0 to 500 mM) was used to elute the protein (over 16 CV) from the column. Fractions were assayed for β-lactamase activity using Centa (Calbiochem, Gibbstown, N.J.) as a reporter β-lactamase substrate for activity in the isolated fractions. Active fractions were pooled, concentrated and further purified by gel filtration chromatography on a Superdex 75 prep grade gel filtration column (GE Healthcare, Piscataway, N.J.) pre-equilibrated in 50 mM Hepes pH 7.5, 150 mM NaCl. Active fractions were pooled concentrated, quantitated by BCA protein determination (Thermo Scientific, Rockford, Ill.), and frozen at −80° C. in 20% glycerol until use.
For VIM-2 metallo (β-lactamase, the procedure was identical with the following exceptions: 1) the protein was not pH adjusted to pH 5 with 50 mM sodium acetate, 2) the chromatography step was changed to a 5 ml Q sepharose anion exchange column pre-equilibrated with 50 mM Hepes pH 7.5, and 3) elution of the protein was achieved by a linear gradient of NaCl (0-600 mM). Finally, the VIM-2 purification required a second run (3rd step) on the Q sepharose anion exchange column to achieve acceptable purity (>90%).
(§2) β-lactamase Inhibition. To determine the level of inhibition of β-lactamase enzymes, compounds were diluted in PBS at pH 7.0 to yield concentrations between 100 and 0.005 μM in microtiter plates. An equal volume of diluted enzyme stock was added, and the plates were incubated at 37° C. for 10 min. Nitrocefin solution was then dispensed as substrate into each well at a final concentration of 100 μM, and the plates were immediately read with the kinetic program at 486 nm for 10 min on the SPECTRAMAX® Plus^384 (high-throughput microplate spectrophotometer; Molecular Devices Corp., Sunnyvale, Calif.). Maximum rates of metabolism were then compared to those in control wells (without inhibitors), and percentages of enzyme inhibition were calculated for each concentration of inhibitor. The concentration of inhibitor needed to reduce the initial rate of hydrolysis of substrate by 50% (IC50) was calculated as the residual activity of β-lactamase at 486 nm using the SoftMax Pro 5.0 software (Molecular Devices Corp.).
Using the methodology described above, examples of the current invention were evaluated for their ability to inhibit β-lactamase enzymes. The results of these assays are summarized in Table 2 for representative enzymes across different subtypes (note SHV-5 and CTXM-15 exemplify different subclasses of Ambler Class A Extended Spectrum Beta Lactamases, KPC-2 exemplifies Class A carbapenemases, P99 represents chromosomal Class C AmpC, VIM-2 exemplifies subclass B1 of metallo-β-lactamases, and OXA-23 represents chromosome-encoded Class D oxacillin-hydrolyzing β-lactamases), NT=not tested.

[6] = target: T6, OXA-23 β-lactamase (Acinetobacter baumannii, UniProt Q9L4P2); assay: β-lactamase enzyme inhibition assay (nitrocefin substrate), OXA-23 crude extract; assay type: biochemical; conditions: nitrocefin 100 μM, 37° C., PBS pH 7.0; read-out: OXA-23 IC50
T6 construct: crude β-lactamase extracts were prepared from 20 ml overnight cultures; endogenous in cells; host or cells: Acinetobacter baumannii cells containing OXA-23 (crude freeze-thaw extract)
Experimental: For OXA-23 β-lactamase, crude β-lactamase extracts were prepared from 20 ml overnight cultures with shaking. Acenitobacter baumanni cells containing OXA-23 were further diluted 10-fold and grown to mid-log phase (OD at 600 nm, 0.5-0.8) in Mueller-Hinton II (MH-II) broth at 37° C. The cells were pelleted at 5000 g, washed and resuspended in 2 mL PBS pH 7.0. The β-lactamases were extracted by four cycles of freezing and thawing followed by centrifugation. β-lactamase activity in the extracts was measured with the chromogenic cephalosporin nitrocefin. The amount of protein in each β-lactamase preparation was determined by the bicinchoninic acid (BCA) assay.
as §2

[7] = test system: E. coli expressing the Class A ESBL SHV-5; assay: In vitro antibacterial assay of β-lactamase inhibition (broth microdilution MIC), E. coli SHV-5; assay type: cell-based
How it was run: (§3)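 MIC read by eye after 16–20 h at 37° C, with CLSI-standard inocula of strains grown 3–5 h in CAMHB containing 50 μg/mL ampicillin. Compounds tested in final 2-fold dilutions from 8 to 0.015 μg/mL together with a β-lactam antibiotic.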

[8] = test system: K. pneumoniae expressing the Class A Extended Spectrum Beta-Lactamase (ESBL) CTX-M-15; assay: In vitro antibacterial assay of β-lactamase inhibition (broth microdilution MIC), K. pneumoniae CTX-M-15; assay type: cell-based
How it was run: as §3

[9] = test system: E. cloacae expressing the Class C P99+; assay: In vitro antibacterial assay of β-lactamase inhibition (broth microdilution MIC), E. cloacae P99+; assay type: cell-based
How it was run: as §3

[10] = test system: K. pneumoniae expressing the Class A carbapenemase KPC-2; assay: microbe, parasite or virus in culture; assay type: cell-based
How it was run: as §3

[11] = test system: P. aeruginosa expressing the Class B metallo β-lactamase VIM-2; assay: In vitro antibacterial assay of β-lactamase inhibition (broth microdilution MIC), P. aeruginosa VIM-2; assay type: cell-based; conditions: in presence of Ceftazidime 16 μg/mL (Examples 1-56)
How it was run: as §3

[12] = nitrocefin 100 μM, 37° C., PBS pH 7.0, read-out: P99 AmpC IC50
[13] = in presence of Ceftazidime 8 μg/ml (Examples 1-56)
[14] = in presence of Piperacillin 16 μg/ml (Examples 57-65)

T1 sequence (P0A3M1 22-286): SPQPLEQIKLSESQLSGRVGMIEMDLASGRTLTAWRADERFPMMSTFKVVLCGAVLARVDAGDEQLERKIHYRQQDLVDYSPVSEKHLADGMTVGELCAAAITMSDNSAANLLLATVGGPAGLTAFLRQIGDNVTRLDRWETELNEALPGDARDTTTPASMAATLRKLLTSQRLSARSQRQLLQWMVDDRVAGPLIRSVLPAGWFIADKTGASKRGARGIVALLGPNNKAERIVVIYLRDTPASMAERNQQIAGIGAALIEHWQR
T2 sequence (Q9EXV5 entry or part of it): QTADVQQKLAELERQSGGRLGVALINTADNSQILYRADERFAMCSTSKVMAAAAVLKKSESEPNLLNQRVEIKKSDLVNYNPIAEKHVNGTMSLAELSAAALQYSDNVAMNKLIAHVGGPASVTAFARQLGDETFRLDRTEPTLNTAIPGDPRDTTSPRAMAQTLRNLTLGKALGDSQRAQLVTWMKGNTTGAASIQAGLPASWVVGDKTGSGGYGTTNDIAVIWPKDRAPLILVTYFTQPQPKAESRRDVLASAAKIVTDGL
T4 sequence (Q9F663 25-293 limits assumed): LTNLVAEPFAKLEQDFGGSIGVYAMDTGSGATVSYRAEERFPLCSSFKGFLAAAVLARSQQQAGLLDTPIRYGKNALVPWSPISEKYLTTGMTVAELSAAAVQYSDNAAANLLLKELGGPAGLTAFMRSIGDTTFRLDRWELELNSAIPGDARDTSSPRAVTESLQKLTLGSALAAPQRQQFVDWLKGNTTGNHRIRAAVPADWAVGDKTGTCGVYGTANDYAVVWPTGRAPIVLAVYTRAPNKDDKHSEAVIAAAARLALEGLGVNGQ
T6 sequence (Q9L4P2 18-273): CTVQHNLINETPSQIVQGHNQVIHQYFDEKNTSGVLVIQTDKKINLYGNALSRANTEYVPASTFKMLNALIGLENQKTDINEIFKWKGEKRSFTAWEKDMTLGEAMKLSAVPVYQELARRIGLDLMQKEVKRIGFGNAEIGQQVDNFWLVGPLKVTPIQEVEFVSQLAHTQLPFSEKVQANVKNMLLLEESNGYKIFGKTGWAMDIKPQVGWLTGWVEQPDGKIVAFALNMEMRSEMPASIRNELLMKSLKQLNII
T3 sequence (P05364 21-381): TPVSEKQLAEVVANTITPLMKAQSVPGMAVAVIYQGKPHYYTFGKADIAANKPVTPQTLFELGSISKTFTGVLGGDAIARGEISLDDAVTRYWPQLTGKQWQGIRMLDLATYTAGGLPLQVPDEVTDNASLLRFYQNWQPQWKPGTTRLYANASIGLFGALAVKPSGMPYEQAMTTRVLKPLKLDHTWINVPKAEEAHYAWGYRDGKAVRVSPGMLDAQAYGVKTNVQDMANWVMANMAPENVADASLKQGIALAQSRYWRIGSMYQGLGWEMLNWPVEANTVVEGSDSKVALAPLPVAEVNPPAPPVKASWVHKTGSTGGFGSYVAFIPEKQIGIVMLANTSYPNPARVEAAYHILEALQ

| Structure (SMILES) | IC50 [1] [nM] | IC50 [2] [nM] | IC50 [3, 12] [nM] | IC50 [4] [nM] | IC50 [5] [nM] | IC50 [6] [nM] | MIC of example compound, E. coli SHV-5 [7, 13] [µg/mL] | MIC of example compound, K. pneumoniae CTX-M-15 [8, 13] [µg/mL] | MIC of example compound, E. cloacae P99+ [9, 13] [µg/mL] | MIC of example compound, K. pneumoniae KPC-2 [10, 13] [µg/mL] | MIC of example compound, P. aeruginosa VIM-2 [11] [µg/mL] | IC50 [3] [nM] | MIC of example compound, E. coli SHV-5 [7, 14] [µg/mL] | MIC of example compound, K. pneumoniae CTX-M-15 [8, 14] [µg/mL] | MIC of example compound, E. cloacae P99+ [9, 14] [µg/mL] | MIC of example compound, K. pneumoniae KPC-2 [10, 14] [µg/mL] |
| --- | --- | --- | --- | --- | --- | --- | --- | --- | --- | --- | --- | --- | --- | --- | --- | --- |
| NCc1cccc(C(=O)N[C@@H](Cc2cccc(C(=O)O)c2O)B(O)O)c1 [Example 1, 2(R)-3-[2-(3-(Aminomethyl)benzoylamino)-2-borono-ethyl]-2-hydroxy-benzoic acid hydrochloride] | 653 | 3 | 1 | 20 | 152 | 64 | 4 | 1 | 0.25 | 0.125 | 8 | – | – | – | – | – |
| Cl.NCc1ccc(C(=O)N[C@@H](Cc2cccc(C(=O)O)c2O)B(O)O)cc1 [Example 2, 2(R)-3-[2-(4-(Aminomethyl)benzoylamino)-2-borono-ethyl]-2-hydroxy-benzoic acid hydrochloride] | > 1000 | 2 | 3 | 13 | 22 | > 1000 | 8 | 2 | 0.25 | 0.015 | 8 | – | – | – | – | – |
| O=C(N[C@@H](Cc1cccc(C(=O)O)c1O)B(O)O)c1ccc(CN2CCOCC2)cc1 [Example 3, 2(R)-3-[2-(4-(Morpholinomethyl)benzoylamino)-2-borono-ethyl]-2-hydroxy-benzoic acid formate] | 367 | 4 | 3 | 14 | 850 | > 1000 | 8 | 2 | 4 | 0.12 | >8 | – | – | – | – | – |
| CN(C)Cc1ccc(C(=O)N[C@@H](Cc2cccc(C(=O)O)c2O)B(O)O)cc1 [Example 4, 2(R)-3-[2-(4-(N,N-Dimethylaminomethyl)benzoylamino)-2-borono-ethyl]-2-hydroxy-benzoic acid formate salt] | 0.6 | 3 | 3 | 4 | > 1000 | 99 | 1 | 0.25 | 2 | 0.06 | >8 | – | – | – | – | – |
| Nc1cccc[n+]1Cc1ccc(CC(=O)N[C@@H](Cc2cccc(C(=O)O)c2O)B(O)O)cc1 [Example 40, (1R)-2-amino-(4-{[2-(3-carboxy-2-hydroxy-phenyl-borono-ethylcarbamoyl]-methyl}-benzyl)-pyridinium formate] | 20 | 4 | 10 | 653 | > 1000 | 132 | 0.25 | 0.25 | 2 | – | >8 | – | – | – | – | – |
| N=C(N)NCc1cc(CC(=O)N[C@@H](Cc2cccc(C(=O)O)c2O)B(O)O)ccn1 [Example 64, (2R)-3-{2-[(2-Guanidinomethyl-pyridin-4-yl-acetyl)-amino]-2-borono-ethyl}-2-hydroxy-benzoic acid formate] | 3 | 3 | – | 17 | 548 | 177 | – | – | – | – | – | 8 | 0.125 | >16 | 4 | 0.125 |
